Source: patent US20140113898A1, “BISARYLSULFONE AND DIALKYLARYLSULFONE COMPOUNDS AS CALCIUM CHANNEL BLOCKERS” (Zalicus Pharmaceuticals Ltd., priority 2010, published 2014)
Read-outs that look alike come from different tables or passages of the source.

Legend:
Assay type in all cases: cell-based
CaV2.2 = molecular target: T1, CaV2.2 (Homo sapiens, UniProt Q00975); experiment: High-throughput CaV2.2/Kir2.3 FLIPR fluorescent assay; settings: Fluo-4 FLIPR, closed or inactivated state not stated, read-out: FLIPR data CaV2.2
T1 construct: expressed in transfected cells; host or cells: unnamed doxycycline-inducible cell line
Method in brief: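 IC50 was derived by logistic fitting of the FLIPR Fluo-4 signal recorded over 3 min after a 130 mM KCl stimulus. Before stimulation, cells (channel expression induced with doxycycline, 29 °C on assay day) were kept in pH 7.4 buffer with 2 mM KCl for the closed-state format or 12.5 mM KCl for the inactivated-state format.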

CaV3.1 = molecular target: T2, CaV3.1 (Homo sapiens, UniProt O43497); experiment: High-throughput CaV3.1 T-type FLIPR fluorescent assay; settings: Fluo-4 FLIPR
T2 construct: expressed in transfected cells; host or cells: unnamed doxycycline-inducible cell line
T2 sequence (O43497 whole entry): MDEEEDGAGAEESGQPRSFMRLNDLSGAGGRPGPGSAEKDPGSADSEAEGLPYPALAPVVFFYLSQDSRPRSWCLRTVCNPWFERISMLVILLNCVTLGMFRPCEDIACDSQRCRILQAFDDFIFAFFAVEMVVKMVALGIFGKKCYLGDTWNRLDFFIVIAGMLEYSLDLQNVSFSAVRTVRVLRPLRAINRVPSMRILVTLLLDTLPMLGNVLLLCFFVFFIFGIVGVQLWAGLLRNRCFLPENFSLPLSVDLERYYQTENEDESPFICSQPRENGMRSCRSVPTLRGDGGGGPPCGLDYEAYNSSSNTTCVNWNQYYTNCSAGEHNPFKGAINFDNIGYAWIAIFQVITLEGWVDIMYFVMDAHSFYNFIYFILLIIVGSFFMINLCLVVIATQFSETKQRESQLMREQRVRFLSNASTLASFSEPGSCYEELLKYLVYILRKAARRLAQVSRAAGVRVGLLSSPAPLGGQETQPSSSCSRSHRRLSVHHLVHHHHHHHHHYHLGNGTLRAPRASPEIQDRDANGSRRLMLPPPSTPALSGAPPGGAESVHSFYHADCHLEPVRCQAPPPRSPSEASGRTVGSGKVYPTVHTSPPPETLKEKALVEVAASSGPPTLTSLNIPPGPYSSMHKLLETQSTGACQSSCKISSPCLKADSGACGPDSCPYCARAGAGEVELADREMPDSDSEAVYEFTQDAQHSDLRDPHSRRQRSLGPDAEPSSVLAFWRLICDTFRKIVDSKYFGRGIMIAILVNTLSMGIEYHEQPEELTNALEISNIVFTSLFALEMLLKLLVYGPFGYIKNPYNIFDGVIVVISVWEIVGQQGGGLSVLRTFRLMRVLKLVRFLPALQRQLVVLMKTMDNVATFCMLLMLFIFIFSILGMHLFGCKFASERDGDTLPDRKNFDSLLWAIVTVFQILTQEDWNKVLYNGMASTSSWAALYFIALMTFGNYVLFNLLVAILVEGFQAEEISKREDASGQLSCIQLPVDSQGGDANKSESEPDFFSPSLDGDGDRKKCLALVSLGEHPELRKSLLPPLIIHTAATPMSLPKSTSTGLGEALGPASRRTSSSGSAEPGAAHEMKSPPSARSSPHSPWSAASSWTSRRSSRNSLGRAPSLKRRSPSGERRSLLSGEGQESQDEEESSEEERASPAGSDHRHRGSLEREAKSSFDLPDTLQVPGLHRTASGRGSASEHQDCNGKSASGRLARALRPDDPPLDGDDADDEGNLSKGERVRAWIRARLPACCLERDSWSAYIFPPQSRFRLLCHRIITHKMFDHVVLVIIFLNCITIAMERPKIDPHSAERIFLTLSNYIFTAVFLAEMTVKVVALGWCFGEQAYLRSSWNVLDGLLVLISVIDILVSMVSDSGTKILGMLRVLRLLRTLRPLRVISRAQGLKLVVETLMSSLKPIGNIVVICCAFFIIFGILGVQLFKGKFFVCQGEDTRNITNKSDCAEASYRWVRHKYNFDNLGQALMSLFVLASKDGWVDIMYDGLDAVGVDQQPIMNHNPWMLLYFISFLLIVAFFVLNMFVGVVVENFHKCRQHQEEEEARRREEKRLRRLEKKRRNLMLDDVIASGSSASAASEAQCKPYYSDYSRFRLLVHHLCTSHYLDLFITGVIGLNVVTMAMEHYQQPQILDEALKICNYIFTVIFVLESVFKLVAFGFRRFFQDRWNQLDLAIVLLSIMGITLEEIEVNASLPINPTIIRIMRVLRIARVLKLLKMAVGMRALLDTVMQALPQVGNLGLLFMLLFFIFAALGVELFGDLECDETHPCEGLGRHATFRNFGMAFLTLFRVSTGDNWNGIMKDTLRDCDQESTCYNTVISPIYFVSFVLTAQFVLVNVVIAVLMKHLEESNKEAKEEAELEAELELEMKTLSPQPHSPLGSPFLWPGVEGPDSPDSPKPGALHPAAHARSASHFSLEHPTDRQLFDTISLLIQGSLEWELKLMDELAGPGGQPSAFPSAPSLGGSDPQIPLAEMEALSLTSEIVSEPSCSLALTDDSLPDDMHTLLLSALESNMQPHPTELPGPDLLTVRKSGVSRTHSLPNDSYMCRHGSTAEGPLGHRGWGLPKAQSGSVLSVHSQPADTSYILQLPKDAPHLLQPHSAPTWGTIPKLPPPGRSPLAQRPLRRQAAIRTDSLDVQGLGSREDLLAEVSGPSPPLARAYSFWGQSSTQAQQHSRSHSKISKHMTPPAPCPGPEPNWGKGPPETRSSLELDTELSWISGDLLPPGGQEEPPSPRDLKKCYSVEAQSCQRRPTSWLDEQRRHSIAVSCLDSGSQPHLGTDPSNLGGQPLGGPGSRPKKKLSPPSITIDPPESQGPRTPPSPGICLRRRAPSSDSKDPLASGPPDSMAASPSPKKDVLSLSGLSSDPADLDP
Procedure: (§1) Cells were plated in 384-well, clear-bottom, black-walled, poly-D-lysine coated plates (Becton Dickinson, Franklin Lake, N.J.) 2 days prior to use in the FLIPR assay. 100 μL of cells (2.0×10^6 cell/mL) containing doxycyline (Sigma-Aldrich, 1.5 μg/mL; to induce channel expression) were added to each well using a Multidrop (Thermo Scientific, Waltham, Mass.) and were maintained in 5% CO2 incubator at 37° C. On the morning of the assay, cells were transferred to a 5% CO2 incubator at 29° C.
Cells were washed with a wash buffer containing (in mM): 118 NaCl, 18.4 HEPES, 11.7 D-glucose, 0.05 CaCl2, 0.5 MgSO4, 1 KCl, and 1.2 KH2PO4, with the pH adjusted to 7.2 with NaOH. 4.4 μM of the fluorescent indicator dye, Fluo-4 (Invitrogen), prepared in pluronic acid
(Sigma-Aldrich), was loaded into the wells and incubated for 45 minutes at 29° C. in 5% CO2. Cells were then rinsed with the following low Ca^2+ buffer (in mM): 0.34 Na2HPO4, 4.2 NaHCO3, 0.44 KH2PO4, 0.41 MgSO4, 0.49 MgCl2-6H2O, 20 HEPES, 5.5 D-Glucose, 137 NaCl, 5.3 KCl, and 0.001 CaCl2, with 0.1% BSA and the pH adjusted to 7.2 with NaOH. Concentration-dependent response curves were generated from 5 mM stock solutions prepared in DMSO (Sigma-Aldrich) and diluted in the buffer containing low Ca^2+ and incubated for 20 minutes at 29° C. in 5% CO2. Calcium entry was evoked with an addition of (in mM): 0.34 Na2HPO4, 4.2 NaHCO3, 0.44 KH2PO4, 0.41 MgSO4, 0.49 MgCl2-6H2O, 20 HEPES, 5.5 D-Glucose, 137 NaCl, 5.3 KCl, and 6 CaCl2, with 0.1% BSA and the pH adjusted to 7.2 with NaOH. A change in the Fluo-4 fluorescence signal was assessed using FLIPR^TETRA™ instrument (Molecular Devices, Sunnyvale, Calif.) for 3 minutes following the elevation of extracellular KCl using an illumination wavelength of 470-495 nm with emissions recorded at 515-575 nm.
(§2) Concentration-dependent response curves were obtained by comparing the fluorescence signal in the presence of compound and fitted with a logistic function (1) to obtain the concentration that inhibited 50% (IC50) of the RLU signal using OriginPro v.7.5 software (OriginLab, Northampton, Mass.).
(§3) To assess the quality of the FLIPR assays the Z-factor (2) was used to quantify the suitability of the assay conditions using the following equation: […]
(§4) Data are expressed as mean and standard deviation (SD).

CaV3.2 = molecular target: T3, CaV3.2 (Homo sapiens, UniProt O95180); experiment: High-throughput CaV3.2/Kir2.3 T-type FLIPR fluorescent assay; settings: Fluo-4 FLIPR, closed or inactivated state not stated
T3 construct: expressed in transfected cells; host or cells: unnamed doxycycline-inducible cell line
T3 sequence (O95180 whole entry): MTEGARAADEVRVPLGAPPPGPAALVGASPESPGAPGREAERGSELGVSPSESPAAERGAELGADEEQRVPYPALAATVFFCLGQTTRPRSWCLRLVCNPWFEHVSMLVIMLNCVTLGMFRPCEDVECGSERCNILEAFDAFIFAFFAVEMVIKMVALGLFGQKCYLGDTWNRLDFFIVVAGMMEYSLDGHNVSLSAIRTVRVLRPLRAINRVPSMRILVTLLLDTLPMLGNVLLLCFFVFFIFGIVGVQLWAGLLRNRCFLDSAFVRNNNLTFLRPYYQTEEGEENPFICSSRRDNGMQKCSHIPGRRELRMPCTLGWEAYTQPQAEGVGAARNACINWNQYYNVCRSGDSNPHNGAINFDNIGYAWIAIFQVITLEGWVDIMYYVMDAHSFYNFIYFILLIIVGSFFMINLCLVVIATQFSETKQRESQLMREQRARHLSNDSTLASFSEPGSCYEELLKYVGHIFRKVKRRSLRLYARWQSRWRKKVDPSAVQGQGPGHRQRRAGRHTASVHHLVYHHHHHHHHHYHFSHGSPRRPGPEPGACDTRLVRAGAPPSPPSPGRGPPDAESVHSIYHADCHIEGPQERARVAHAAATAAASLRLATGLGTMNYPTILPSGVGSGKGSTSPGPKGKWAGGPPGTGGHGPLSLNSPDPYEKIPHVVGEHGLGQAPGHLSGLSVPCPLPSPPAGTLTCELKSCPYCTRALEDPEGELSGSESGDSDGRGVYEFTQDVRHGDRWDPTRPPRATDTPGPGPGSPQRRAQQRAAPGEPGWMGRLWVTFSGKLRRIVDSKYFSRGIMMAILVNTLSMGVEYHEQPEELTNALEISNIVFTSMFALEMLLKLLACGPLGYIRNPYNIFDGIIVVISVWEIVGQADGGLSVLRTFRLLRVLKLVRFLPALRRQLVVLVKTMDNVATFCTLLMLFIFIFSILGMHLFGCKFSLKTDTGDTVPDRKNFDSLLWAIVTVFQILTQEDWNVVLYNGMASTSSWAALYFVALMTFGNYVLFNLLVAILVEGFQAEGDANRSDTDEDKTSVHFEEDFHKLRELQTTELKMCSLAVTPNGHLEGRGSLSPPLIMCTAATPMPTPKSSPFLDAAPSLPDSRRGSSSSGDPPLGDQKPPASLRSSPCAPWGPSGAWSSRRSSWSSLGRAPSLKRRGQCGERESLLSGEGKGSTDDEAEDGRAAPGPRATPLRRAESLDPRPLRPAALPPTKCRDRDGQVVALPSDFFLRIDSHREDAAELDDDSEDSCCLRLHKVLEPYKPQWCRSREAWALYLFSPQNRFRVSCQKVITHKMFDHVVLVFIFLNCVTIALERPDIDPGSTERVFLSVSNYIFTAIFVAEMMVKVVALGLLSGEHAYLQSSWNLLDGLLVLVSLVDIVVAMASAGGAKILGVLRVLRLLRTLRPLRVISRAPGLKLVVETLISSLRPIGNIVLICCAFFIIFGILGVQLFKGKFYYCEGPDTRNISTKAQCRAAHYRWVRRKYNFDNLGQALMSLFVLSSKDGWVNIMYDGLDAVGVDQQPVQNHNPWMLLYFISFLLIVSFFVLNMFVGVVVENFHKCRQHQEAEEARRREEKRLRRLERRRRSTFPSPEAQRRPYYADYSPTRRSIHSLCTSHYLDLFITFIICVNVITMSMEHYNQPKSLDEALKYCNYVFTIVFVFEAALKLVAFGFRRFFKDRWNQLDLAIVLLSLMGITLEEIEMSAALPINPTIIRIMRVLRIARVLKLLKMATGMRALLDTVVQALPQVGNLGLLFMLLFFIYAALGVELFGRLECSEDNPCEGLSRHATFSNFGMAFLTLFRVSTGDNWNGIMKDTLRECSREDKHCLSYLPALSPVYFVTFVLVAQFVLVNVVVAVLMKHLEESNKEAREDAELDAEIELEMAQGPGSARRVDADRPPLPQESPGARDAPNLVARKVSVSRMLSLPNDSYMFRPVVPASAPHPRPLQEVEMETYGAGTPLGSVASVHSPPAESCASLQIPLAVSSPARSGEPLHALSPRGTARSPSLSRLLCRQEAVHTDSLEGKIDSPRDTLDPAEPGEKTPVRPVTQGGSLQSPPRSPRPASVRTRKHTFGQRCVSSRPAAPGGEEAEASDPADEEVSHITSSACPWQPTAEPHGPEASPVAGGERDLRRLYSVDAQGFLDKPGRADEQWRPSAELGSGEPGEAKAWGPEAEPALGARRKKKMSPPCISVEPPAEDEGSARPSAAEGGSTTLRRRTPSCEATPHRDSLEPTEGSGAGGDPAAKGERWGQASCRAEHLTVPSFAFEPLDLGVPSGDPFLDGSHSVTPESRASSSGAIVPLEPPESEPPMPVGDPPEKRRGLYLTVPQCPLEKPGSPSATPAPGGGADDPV
Procedure: as §1, with “µL” for “μL”, “(1.2×10^6” for “(2.0×10^6”
Cells were washed with a wash buffer containing (in mM): 118 NaCl, 18.4 HEPES, 11.7 D-glucose, 2 CaCl2, 0.5 MgSO4, 4.7 KCl, and 1.2 KH2PO4, with the pH adjusted to 7.2 with
NaOH. 4.4 μM of the fluorescent indicator dye Fluo-4 (Invitrogen) prepared in pluronic acid (Sigma-Aldrich) was loaded into the wells and incubated for 45 minutes at 29° C. in 5% CO2. Cells were then rinsed with either a 2 mM KCl closed-state buffer (in mM: 138.5 NaCl, 10 HEPES, 10 D-glucose, 1 CaCl2, and 2 KCl, with the pH adjusted to 7.4 with NaOH) when performing the closed-state assay or 7.6 mM KCl inactivated-state buffer (in mM: 130.9 NaCl, 10 HEPES, 10 D-glucose, 1 CaCl2, and 7.6 mM KCl, with the pH adjusted to 7.4 with NaOH) when performing the inactivated-state assay. Concentration-dependent response curves were generated from 5 mM stock solutions prepared in DMSO (Sigma-Aldrich), diluted in either the 2 mM KCl buffer or 7.6 mM KCl buffer, and incubated for 20 minutes at 29° C. in 5% CO2. Calcium entry was evoked with an addition of either 12 mM KCl stimulation buffer (in mM: 128.5 NaCl, 10 HEPES, 10 D-glucose, 1 CaCl2, and 12 KCl, with the pH adjusted to 7.4 with NaOH) or 14.5 mM KCl stimulation buffer (in mM: 126 NaCl, 10 HEPES, 10 D-glucose, 1 CaCl2, and 14.5 KCl, with the pH adjusted to 7.4 with NaOH) for the closed-state or inactivated-state assay respectively. A change in the Fluo-4 fluorescence signal was assessed using FLIPR^TETRA™ instrument (Molecular Devices, Sunnyvale, Calif.) for 3 minutes following the elevation of extracellular KCl using an illumination wavelength of 470-495 nm with emissions recorded at 515-575 nm.
as §2, §3, §4

Row | IC50 (CaV2.2; Table 5) | IC50 (CaV3.1; Table 5) | IC50 (CaV3.2; Table 5) | IC50 (CaV2.2; Table 4) | IC50 (CaV3.1; Table 4) | IC50 (CaV3.2; Table 4) | SMILES
1 | 400 nM | 630 nM | 350 nM |  |  |  | CC(C)(C(=O)NCc1ccccc1S(=O)(=O)c1cccc(C(F)(F)F)c1)S(=O)(=O)c1cccc(C(F)(F)F)c1 [Compound 227, 2-methyl-2-((3-(trifluoromethyl)phenyl)sulfonyl)-N-(2-((3-(trifluoromethyl)phenyl)sulfonyl)benzyl)propanamide]
2 |  |  |  | 760 nM | 4760 nM | 2400 nM | O=C(NCc1cc(S(=O)(=O)c2cccc(C(F)(F)F)c2)ccn1)[C@@H]1C[C@@H](C2CCCCC2)CN1 [Compound 118, (2S,4S)-4-cyclohexyl-N-((4-((3-(trifluoromethyl)phenyl)sulfonyl)pyridin-2-yl)methyl)pyrrolidine-2-carboxamide]
3 |  |  |  | 1220 nM | 1850 nM | 1740 nM | O=C1c2cc(C(F)(F)F)nn2CCN1Cc1ccccc1S(=O)(=O)c1cccc(C(F)(F)F)c1 [Compound 35, 2-(trifluoromethyl)-5-(2-((3-(trifluoromethyl)phenyl)sulfonyl)benzyl)-6,7-dihydropyrazolo[1,5-a]pyrazin-4(5H)-one]
4 |  |  |  | 590 nM | 1630 nM | 970 nM | O=C1c2cc(C(F)(F)F)nn2CCN1Cc1cccc(S(=O)(=O)c2cccc(C(F)(F)F)c2)c1 [Compound 34, 2-(trifluoromethyl)-5-(3-((3-(trifluoromethyl)phenyl)sulfonyl)benzyl)-6,7-dihydropyrazolo[1,5-a]pyrazin-4(5H)-one]
5 |  |  |  | 610 nM | 900 nM | 2070 nM | O=C(NCc1ccc(S(=O)(=O)c2cccc(C(F)(F)F)c2)cn1)c1ccc(C(F)(F)F)nc1 [Compound 90, 6-(trifluoromethyl)-N-((5-((3-(trifluoromethyl)phenyl)sulfonyl)pyridin-2-yl)methyl)nicotinamide]
6 |  |  |  | 830 nM | 410 nM | 770 nM | O=C(NCc1ccccc1S(=O)(=O)c1cccc(C(F)(F)F)c1)c1ccc(Cl)c(F)c1 [Compound 36, 4-chloro-3-fluoro-N-(2-((3-(trifluoromethyl)phenyl)sulfonyl)benzyl)benzamide]
7 |  |  |  | 910 nM | 1270 nM | 1320 nM | CS(=O)(=O)c1cc(C(F)(F)F)ccc1C(=O)NCc1ccc(S(=O)(=O)c2cccc(C(F)(F)F)c2)cn1 [Compound 99, 2-(methylsulfonyl)-4-(trifluoromethyl)-N-((5-((3-(trifluoromethyl)phenyl)sulfonyl)pyridin-2-yl)methyl)benzamide]
8 |  |  |  | 380 nM | 920 nM | 1390 nM | Cn1nc(C(F)(F)F)cc1C(=O)NCc1ccccc1S(=O)(=O)c1cccc(C(F)(F)F)c1 [Compound 41, 1-methyl-3-(trifluoromethyl)-N-(2-((3-(trifluoromethyl)phenyl)sulfonyl)benzyl)-1H-pyrazole-5-carboxamide]
9 | 920 nM | 4990 nM | 3010 nM |  |  |  | CC(C)(C(=O)Nc1ccc(Oc2ccc(C(F)(F)F)cn2)nc1)S(=O)(=O)c1cccc(OC(F)(F)F)c1 [Compound 123, 2-methyl-2-((3-(trifluoromethoxy)phenyl)sulfonyl)-N-(6-((5-(trifluoromethyl)pyridin-2-yl)oxy)pyridin-3-yl)propanamide]
10 |  |  |  | 440 nM | 580 nM |  | N[C@@H](C(=O)NCc1ccc(S(=O)(=O)c2cccc(C(F)(F)F)c2)cc1)c1ccccc1 [Compound 63, (R)-2-amino-2-phenyl-N-(4-((3-(trifluoromethyl)phenyl)sulfonyl)benzyl)acetamide]
11 | 1020 nM | 5690 nM |  |  |  |  | CC(C)(C(=O)Nc1ccc(Oc2ccc(C(F)(F)F)cn2)nc1)S(=O)(=O)c1cccc(C(F)(F)F)c1 [Compound 120, 2-methyl-2-((3-(trifluoromethyl)phenyl)sulfonyl)-N-(6-((5-(trifluoromethyl)pyridin-2-yl)oxy)pyridin-3-yl)propanamide]
12 |  |  |  | 310 nM |  | 2660 nM | O=C1c2ccc(C(F)(F)F)nc2CN1Cc1ccc(S(=O)(=O)c2cccc(C(F)(F)F)c2)cc1 [Compound 56, 2-(trifluoromethyl)-6-(4-((3-(trifluoromethyl)phenyl)sulfonyl)benzyl)-6,7-dihydro-5H-pyrrolo[3,4-b]pyridin-5-one]
13 | 1390 nM |  | 3530 nM |  |  |  | CC(C)Oc1cccnc1C(C)(C)NC(=O)C(C)(C)S(=O)(=O)c1cccc(C(F)(F)F)c1 [Compound 147, N-(2-(3-isopropoxypyridin-2-yl)propan-2-yl)-2-methyl-2-((3-(trifluoromethyl)phenyl)sulfonyl)propanamide]
14 |  |  |  | 770 nM |  | 8700 nM | O=C(NCc1ccc(S(=O)(=O)c2cccc(C(F)(F)F)c2)cc1)[C@H]1CCCCN1 [Compound 80, (R)-N-(4-((3-(trifluoromethyl)phenyl)sulfonyl)benzyl)piperidine-2-carboxamide]
15 |  |  |  | 400 nM |  | 6710 nM | O=C(CCC(F)(F)F)NCc1cccc(S(=O)(=O)c2cccc(C(F)(F)F)c2)c1 [Compound 54, 4,4,4-trifluoro-N-(3-((3-(trifluoromethyl)phenyl)sulfonyl)benzyl)butanamide]
16 |  |  |  | 1450 nM |  | 8440 nM | O=C(NCc1ccc(S(=O)(=O)c2cccc(C(F)(F)F)c2)cc1)[C@@H]1CCCCN1 [Compound 79, (S)-N-(4-((3-(trifluoromethyl)phenyl)sulfonyl)benzyl)piperidine-2-carboxamide]
17 | 1860 nM |  | 7210 nM |  |  |  | COc1cc(C)ccc1C(=O)NCC(C)(C)S(=O)(=O)c1cccc(C(F)(F)F)c1 [Compound 170, 2-methoxy-4-methyl-N-(2-methyl-2-((3-(trifluoromethyl)phenyl)sulfonyl)propyl)benzamide]
18 | 1480 nM |  | 5100 nM |  |  |  | CC(C)(C(=O)N1CCC(c2nc3ccccc3[nH]2)CC1)S(=O)(=O)c1cccc(C(F)(F)F)c1 [Compound 138, 1-(4-(1H-benzol[d]imidazol-2-yl)piperidin-1-yl)-2-methyl-2-((3-(trifluoromethyl)phenyl)sulfonyl)propan-1-one]
